Usually EC50 stands for the concentration at which the effect is half-maximal. The low end stands for an effect from little substance, the high end for a need for much substance. As usually defined, the DC50 is the midpoint of the concentration-degradation curve.

The test system of one assay is Eotaxin-3 release in human whole blood stimulated with IL-4. Nature of the assay: Human Whole Blood Eotaxin-3 Assay (IL-4 stimulated eotaxin-3 release). The format is cell-based. The note with it: IL-4 stimulation, 48 h, values given for compounds with >80% Emax, geometric mean. The protocol: Human Whole Blood Eotaxin-3 Assay
This was a human whole blood assay using recombinant human Interleukin 4 to stimulate the blood and measuring the ability of the test compounds to inhibit eotaxin-3 release. The biological activities of the test compounds have been tested in human whole blood stimulated with IL-4 measuring Eotaxin-3 release. The test compounds were added to 384 well clear flat-bottom plate in a 4-fold serial dilution in triplicates using a liquid handler. Human whole blood stabilized in lithium-heparin tubes was added in a volume of 65 μL per well, resulting in a final DMSO concentration of 0.5%. The plate is incubated for 2 h at 37° C. under 5% CO2/95% air. Subsequently, 5 μL of recombinant human IL-4 (R&D Systems, cat #204-ILB) was added to the wells to a final concentration of […]. The plate was incubated for 48 h at 37° C. under 5% CO2/95% air. The plate was spun down for 10 minutes at 500×g and 20 μL supernatant was harvested and transferred to a 384 well v-bottom plate using a liquid handler and stored at −20° C. until further analysis. 10 μL supernatant was used to measure the level of Eotaxin-3 (CCL26) using Human Eotaxin-3 MSD kit from Mesocsale (Cat #K251UEK-4). The assay was performed according to the manufacture instructions.
The data from the human whole blood eotaxin-3 assay is shown in FIG. 2 for Examples 3u208, 3u246, 3u118, 3u119, 3u120, and 3u74 (where the effect in % is plotted against the test concentration in M on a log scale).
With `CNc1ccn(-c2ccnc3c2cc([C@H](C)N2CCC(c4ccc(C(=O)N5CCC(CN6CCN(Cc7ccc8c(c7)C7(CC7)C(=O)N8C7CCC(=O)NC7=O)C[C@@H]6C)CC5)cc4)CC2)n3C)c(=O)c1` (mixture of isomers) [Example 3u5, 3-(5′-(((S)-3-methyl-4-((1-(4-(1-((S)-1-(1-methyl-4-(4-(methylamino)-2-oxopyridin-1 (2H)-yl)-1H-pyrrolo[2,3-b]pyridin-2-yl)ethyl)piperidin-4-yl)benzoyl)piperidin-4-yl)methyl)piperazin-1-yl)-methyl)-2′-oxospiro[cyclopropane-1,3′-indolin]-1′-yl)piperidine-2,6-dione], the EC50 worked out at 0.8 nM.
On the same count and under the same terms, the figure for `CNc1cc(=O)n(-c2ccnc3c2cc([C@H](C)N2CC=C(c4c(F)cc(C(=O)N5CCC(CN6CCN(Cc7ccc8c(c7)n(C)c(=O)n8C7CCC(=O)NC7=O)CC6)CC5)cc4F)CC2)n3C)cc1F` (mixture of isomers) [Example 3u51, 3-(5-((4-((1-(3,5-difluoro-4-(1-((S)-1-(4-(5-fluoro-4-(methylamino)-2-oxopyridin-1 (2H)-yl)-1-methyl-1H-pyrrolo[2,3-b]pyridin-2-yl)ethyl)-1,2,3,6-tetrahydropyridin-4-yl)benzoyl)piperidin-4-yl)methyl)piperazin-1-yl)methyl)-3-methyl-2-oxo-2,3-dihydro-1H-benzo[d]imidazol-1-yl)piperidine-2,6-dione] is 1.9 nM; for `C[C@@H](c1cc2c(-n3cc(F)c4c(c3=O)CCN4)ccnc2n1C)N1CC=C(c2c(F)cc(C(=O)N3CCC(CN4CCN(c5cc6c(cc5F)n(C5CCC(=O)NC5=O)c(=O)n6C)CC4)CC3)cc2F)CC1` (stereo partly drawn) [Example 3u269, 3-(5-(4-((1-(3,5-difluoro-4-(1-((S)-1-(4-(7-fluoro-4-oxo-1,2,3,4-tetrahydro-5H-pyrrolo[3,2-c]pyridin-5-yl)-1-methyl-1H-pyrrolo[2,3-b]pyridin-2-yl)ethyl)-1,2,3,6-tetrahydropyridin-4-yl)benzoyl)piperidin-4-yl)methyl)piperazin-1-yl)-6-fluoro-3-methyl-2-oxo-2,3-dihydro-1H-benzo[d]-imidazol-1-yl)piperidine-2,6-dione] it is 96.3 nM.
In turn, `CNc1ccn(-c2ccnc3c2cc(CN2CCC(c4c(F)cc(C(=O)N5CCC(CN6CCN(c7cc8c(cc7F)n(C7CCC(=O)NC7=O)c(=O)n8C)CC6)CC5)cc4F)CC2)n3C)c(=O)c1` (stereo not drawn) [Example 3u270, 3-(5-(4-((1-(3,5-difluoro-4-(1-((1-methyl-4-(4-(methylamino)-2-oxopyridin-1 (2H)-yl)-1H-pyrrolo[2,3-b]pyridin-2-yl)methyl)piperidin-4-yl)benzoyl)piperidin-4-yl)methyl)piperazin-1-yl)-6-fluoro-3-methyl-2-oxo-2,3-dihydro-1H-benzo[d]imidazol-1-yl)piperidine-2,6-dione] returned a 50% effective concentration (EC50) of 26.8 nM.
Same read-out and setting: to `CNc1cc(=O)n(-c2ccnc3c2cc([C@H](C)N2CC=C(c4c(C)cc(C(=O)N5CCC(CN6CCN(c7cccc8c7n(C)c(=O)n8C7CCC(=O)NC7=O)CC6)CC5)cc4F)CC2)n3C)cc1F` (stereo partly drawn) [Example 3u271, 3-(4-(4-((1-(3-fluoro-4-(1-((S)-1-(4-(5-fluoro-4-(methylamino)-2-oxopyridin-1 (2H)-yl)-1-methyl-1H-pyrrolo[2,3-b]pyridin-2-yl)ethyl)-1,2,3,6-tetrahydropyridin-4-yl)-5-methylbenzoyl)-piperidin-4-yl)methyl)piperazin-1-yl)-3-methyl-2-oxo-2,3-dihydro-1H-benzo[d]imidazol-1-yl)-piperidine-2,6-dione] belongs 3.3 nM; to `CNc1ccn(-c2ccnc3c2cc([C@H](C)N2CC=C(c4c(C)cc(C(=O)N5CCC(CN6CCN(c7cc8c(cc7F)n(C7CCC(=O)NC7=O)c(=O)n8C)CC6)CC5)cc4F)CC2)n3C)c(=O)c1F` (stereo partly drawn) [Example 3u273, 3-(6-fluoro-5-(4-((1-(3-fluoro-4-(1-((S)-1-(4-(3-fluoro-4-(methylamino)-2-oxopyridin-1 (2H)-yl)-1-methyl-1H-pyrrolo[2,3-b]pyridin-2-yl)ethyl)-1,2,3,6-tetrahydropyridin-4-yl)-5-methylbenzoyl)piperidin-4-yl)methyl)piperazin-1-yl)-3-methyl-2-oxo-2,3-dihydro-1H-benzo[d]imidazol-1-yl)piperidine-2,6-dione], 31.8 nM; to `CNc1cc(=O)n(-c2ccnc3c2cc([C@H](C)N2CC=C(c4c(C)cc(C(=O)N5CCC(CN6CCC(c7ccc8c(c7)C7(CC7)C(=O)N8C7CCC(=O)NC7=O)CC6)CC5)cc4F)CC2)n3C)cc1F` (stereo partly drawn) [Example 3u282, 3-(5′-(1-((1-(3-fluoro-4-(1-((S)-1-(4-(5-fluoro-4-(methylamino)-2-oxopyridin-1 (2H)-yl)-1-methyl-1H-pyrrolo[2,3-b]pyridin-2-yl)ethyl)-1,2,3,6-tetrahydropyridin-4-yl)-5-methylbenzoyl)-piperidin-4-yl)methyl)piperidin-4-yl)-2′-oxospiro[cyclopropane-1,3′-indolin]-1′-yl)piperidine-2,6-dione], 6.9 nM.
`CNc1cc(=O)n(-c2ccnc3c2cc([C@H](C)N2CC=C(c4c(C)cc(C(=O)N5CCC(O)(CC6CCN(c7ccc8c(c7)C7(CC7)C(=O)N8C7CCC(=O)NC7=O)CC6)CC5)cc4F)CC2)n3C)cc1F` (stereo partly drawn) [Example 3u283, 3-(5′-(4-((1-(3-fluoro-4-(1-((S)-1-(4-(5-fluoro-4-(methylamino)-2-oxopyridin-1 (2H)-yl)-1-methyl-1H-pyrrolo[2,3-b]pyridin-2-yl)ethyl)-1,2,3,6-tetrahydropyridin-4-yl)-5-methylbenzoyl)-4-hydroxypiperidin-4-yl)methyl)piperidin-1-yl)-2′-oxospiro[cyclopropane-1,3′-indolin]-1′-yl)piperidine-2,6-dione] came in with an EC50 of 126 nM.
Same read-out and setting: the figure for `CNc1cc(=O)n(-c2ccnc3c2cc([C@H](C)N2CC=C(c4c(C)cc(C(=O)N5CCC(CN6CCN(c7cc8c(cc7F)N(C7CCC(=O)NC7=O)C(=O)C87CC7)CC6)CC5)cc4F)CC2)n3C)cc1F` (stereo partly drawn) [Example 3u305, 3-(6′-fluoro-5′-(4-((1-(3-fluoro-4-(1-((S)-1-(4-(5-fluoro-4-(methylamino)-2-oxopyridin-1 (2H)-yl)-1-methyl-1H-pyrrolo[2,3-b]pyridin-2-yl)ethyl)-1,2,3,6-tetrahydropyridin-4-yl)-5-methylbenzoyl)piperidin-4-yl)methyl)piperazin-1-yl)-2′-oxospiro[cyclopropane-1,3′-indolin]-1′-yl)piperidine-2,6-dione] is 24.9 nM; for `CNc1cc(=O)n(-c2ccnc3c2cc([C@H](C)N2CC=C(c4c(C)cc(C(=O)N5CCC(CN6CCN(c7cc8c(cc7F)N(C7CCC(=O)NC7=O)C(=O)C8(C)C)CC6)CC5)cc4F)CC2)n3C)cc1F` (stereo partly drawn) [Example 3u306, 3-(6-fluoro-5-(4-((1-(3-fluoro-4-(1-((S)-1-(4-(5-fluoro-4-(methylamino)-2-oxopyridin-1 (2H)-yl)-1-methyl-1H-pyrrolo[2,3-b]pyridin-2-yl)ethyl)-1,2,3,6-tetrahydropyridin-4-yl)-5-methylbenzoyl)piperidin-4-yl)methyl)piperazin-1-yl)-3,3-dimethyl-2-oxoindolin-1-yl)piperidine-2,6-dione] it is 194 nM.

In another assay the target is T1, STAT6 (Homo sapiens, UniProt P42226).
T1 construct: These cells express endogenous STAT6; host or cells: HeLa LgBiT clone 4.14
T1 sequence (P42226 1-847): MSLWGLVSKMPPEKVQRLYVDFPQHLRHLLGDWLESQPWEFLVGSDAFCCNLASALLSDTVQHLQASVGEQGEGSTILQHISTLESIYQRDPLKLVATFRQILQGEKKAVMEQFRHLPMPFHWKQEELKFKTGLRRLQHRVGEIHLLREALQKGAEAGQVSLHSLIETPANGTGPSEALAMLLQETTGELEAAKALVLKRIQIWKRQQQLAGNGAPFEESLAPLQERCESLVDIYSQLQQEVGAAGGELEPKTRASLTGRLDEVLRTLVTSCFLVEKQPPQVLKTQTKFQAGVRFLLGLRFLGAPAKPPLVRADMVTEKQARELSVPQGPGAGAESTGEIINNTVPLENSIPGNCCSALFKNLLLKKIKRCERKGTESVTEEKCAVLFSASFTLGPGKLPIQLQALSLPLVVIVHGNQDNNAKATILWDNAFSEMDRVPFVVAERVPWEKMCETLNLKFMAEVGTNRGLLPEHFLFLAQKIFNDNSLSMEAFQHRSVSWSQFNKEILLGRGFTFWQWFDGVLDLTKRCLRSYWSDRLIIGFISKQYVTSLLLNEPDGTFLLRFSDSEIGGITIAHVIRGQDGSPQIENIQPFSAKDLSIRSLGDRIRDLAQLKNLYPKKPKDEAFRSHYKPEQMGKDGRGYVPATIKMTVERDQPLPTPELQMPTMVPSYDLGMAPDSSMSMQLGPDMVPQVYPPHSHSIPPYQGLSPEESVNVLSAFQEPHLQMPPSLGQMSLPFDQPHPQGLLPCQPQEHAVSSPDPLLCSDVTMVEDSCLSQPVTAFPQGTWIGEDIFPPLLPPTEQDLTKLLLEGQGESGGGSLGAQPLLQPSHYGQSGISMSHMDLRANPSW
Nature of the assay: Stat6 Degrader Assay (HiBiT based, HeLa LgBiT clone 4.14). The class given is cell-based. The following applies: HeLa LgBiT clone 4.14 HiBiT-STAT6, 4-24 h incubation; values given for compounds with >80% Emax; geometric mean; read-out: STAT6 degradation DC50. The method in brief:
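Luminescence from HiBiT-STAT6 complementing stably expressed LgBiT in HeLa clone 4.14 reports remaining STAT6 protein. Cells (5000/well) exposed to compound for 4-24 h at 37° C; read 0.5 h after Nano-Glo addition. 100% degradation window set with 50 μM terfenadine; percent degradation plotted against concentration.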
In general terms: HiBiT is a short tag that completes a luciferase, so light tracks the accessible tagged protein.
In the case of `CNc1ccn(-c2ccnc3c2cc([C@H](C)N2CCC(c4ccc(C(=O)N5CCC(CN6CCN(Cc7ccc8c(c7)C7(CC7)C(=O)N8C7CCC(=O)NC7=O)C[C@@H]6C)CC5)cc4)CC2)n3C)c(=O)c1` (mixture of isomers) [Example 3u5, 3-(5′-(((S)-3-methyl-4-((1-(4-(1-((S)-1-(1-methyl-4-(4-(methylamino)-2-oxopyridin-1 (2H)-yl)-1H-pyrrolo[2,3-b]pyridin-2-yl)ethyl)piperidin-4-yl)benzoyl)piperidin-4-yl)methyl)piperazin-1-yl)-methyl)-2′-oxospiro[cyclopropane-1,3′-indolin]-1′-yl)piperidine-2,6-dione], the DC50 was determined as 1 nM.
Turning to `CNc1cc(=O)n(-c2ccnc3c2cc([C@H](C)N2CC=C(c4c(F)cc(C(=O)N5CCC(CN6CCN(Cc7ccc8c(c7)n(C)c(=O)n8C7CCC(=O)NC7=O)CC6)CC5)cc4F)CC2)n3C)cc1F` (mixture of isomers) [Example 3u51, 3-(5-((4-((1-(3,5-difluoro-4-(1-((S)-1-(4-(5-fluoro-4-(methylamino)-2-oxopyridin-1 (2H)-yl)-1-methyl-1H-pyrrolo[2,3-b]pyridin-2-yl)ethyl)-1,2,3,6-tetrahydropyridin-4-yl)benzoyl)piperidin-4-yl)methyl)piperazin-1-yl)methyl)-3-methyl-2-oxo-2,3-dihydro-1H-benzo[d]imidazol-1-yl)piperidine-2,6-dione], the DC50 came out at 1.8 nM.
